Columns and labels:
[1] = biological target: Tyrosine-protein kinase BTK (Homo sapiens, UniProt Q06187); test: Inhibition of recombinant human His-tagged full length BTK expressed in baculovirus expression system using TK1 as substrate incubated for 60 mins by HTRF assay
[2] = Cmax in BALB/c mouse 2 mg/kg, po measured upto 24 hrs by LC-MS/MS analysis; type: ADME, organism-based; set-up: route oral, dose 2 mg/kg, time <=24; conditions: in vivo
[3] = AUC in BALB/c mouse 2 mg/kg, po measured upto 24 hrs by LC-MS/MS analysis; type: ADME, organism-based; set-up: route oral, dose 2 mg/kg, time <=24; conditions: in vivo
[4] = Protein binding in human plasma at 2 uM incubated for 4 hrs by LC-MS/MS analysis; type: ADME, cell-free; conditions: read-out: PPB (converted)
[5] = Protein binding in rat plasma at 2 uM incubated for 4 hrs by LC-MS/MS analysis; type: ADME, cell-free; conditions: read-out: PPB (converted)
[6] = Protein binding in mouse plasma at 2 uM incubated for 4 hrs by LC-MS/MS analysis; type: ADME, cell-free; conditions: read-out: PPB (converted)
[7] = biological target: Cytochrome P450 2D6 (Homo sapiens, UniProt P10635); test: Inhibition of human liver microsome CYP2D6 using dextromethorphan as substrate preincubated for 10 mins followed by substrate and NADPH addition and measured after 10 mins by LC-MS/MS analysis
Chain of Cytochrome P450 2D6 (P10635 whole entry): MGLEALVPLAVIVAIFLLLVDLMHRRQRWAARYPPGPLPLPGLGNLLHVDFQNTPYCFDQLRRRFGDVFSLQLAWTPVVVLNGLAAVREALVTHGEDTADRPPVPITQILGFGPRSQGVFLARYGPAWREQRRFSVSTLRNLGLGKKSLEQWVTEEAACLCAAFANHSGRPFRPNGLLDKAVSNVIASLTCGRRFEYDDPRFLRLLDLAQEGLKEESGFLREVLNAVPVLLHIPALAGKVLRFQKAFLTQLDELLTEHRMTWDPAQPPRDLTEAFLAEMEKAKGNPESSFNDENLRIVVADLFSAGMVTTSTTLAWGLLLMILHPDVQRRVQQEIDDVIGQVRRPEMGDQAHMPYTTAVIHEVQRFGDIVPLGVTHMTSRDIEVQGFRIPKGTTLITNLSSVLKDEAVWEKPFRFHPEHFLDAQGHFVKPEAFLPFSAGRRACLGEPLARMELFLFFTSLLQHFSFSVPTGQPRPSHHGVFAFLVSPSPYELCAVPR

[8] = biological target: Cytochrome P450 2C19 (Homo sapiens, UniProt P33261); test: Inhibition of human liver microsome CYP2C19 using S-mephenytoin as substrate preincubated for 10 mins followed by substrate and NADPH addition and measured after 10 mins by LC-MS/MS analysis
Chain of Cytochrome P450 2C19 (P33261 whole entry): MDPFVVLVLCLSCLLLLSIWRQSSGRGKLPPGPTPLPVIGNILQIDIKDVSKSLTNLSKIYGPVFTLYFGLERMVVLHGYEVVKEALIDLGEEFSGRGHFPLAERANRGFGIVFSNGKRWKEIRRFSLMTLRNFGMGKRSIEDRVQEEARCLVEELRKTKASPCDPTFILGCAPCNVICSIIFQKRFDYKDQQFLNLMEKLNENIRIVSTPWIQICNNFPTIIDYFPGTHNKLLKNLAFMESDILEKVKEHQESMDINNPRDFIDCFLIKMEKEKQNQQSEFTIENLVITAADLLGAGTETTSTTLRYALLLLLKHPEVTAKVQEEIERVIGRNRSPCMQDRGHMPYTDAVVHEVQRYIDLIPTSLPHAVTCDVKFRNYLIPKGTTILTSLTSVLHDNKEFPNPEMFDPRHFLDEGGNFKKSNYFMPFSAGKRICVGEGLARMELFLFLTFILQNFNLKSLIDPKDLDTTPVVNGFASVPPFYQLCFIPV

[9] = biological target: T1, Cytochrome P450 1A2 (Homo sapiens, UniProt P05177); test: Inhibition of human liver microsome CYP1A2 using phenacetin as substrate preincubated for 10 mins followed by substrate and NADPH addition and measured after 10 mins by LC-MS/MS analysis
T1 sequence (P05177 whole entry): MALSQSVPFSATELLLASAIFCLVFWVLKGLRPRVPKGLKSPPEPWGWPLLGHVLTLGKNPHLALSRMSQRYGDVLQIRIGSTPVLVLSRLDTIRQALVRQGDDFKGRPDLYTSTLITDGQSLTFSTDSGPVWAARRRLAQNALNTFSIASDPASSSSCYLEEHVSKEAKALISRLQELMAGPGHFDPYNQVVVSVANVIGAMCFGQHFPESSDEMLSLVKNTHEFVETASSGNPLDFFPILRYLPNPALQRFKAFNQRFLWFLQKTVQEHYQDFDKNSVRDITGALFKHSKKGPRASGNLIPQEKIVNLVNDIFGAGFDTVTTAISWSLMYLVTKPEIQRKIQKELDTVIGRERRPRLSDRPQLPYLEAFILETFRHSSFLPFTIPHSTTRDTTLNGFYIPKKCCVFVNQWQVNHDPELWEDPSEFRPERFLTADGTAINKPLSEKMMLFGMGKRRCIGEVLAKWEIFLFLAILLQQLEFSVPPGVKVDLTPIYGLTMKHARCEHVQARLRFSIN

[10] = biological target: Cytochrome P450 2C9 (Homo sapiens, UniProt P11712); test: Inhibition of human liver microsome CYP2C9 using diclofenac as substrate preincubated for 10 mins followed by substrate and NADPH addition and measured after 10 mins by LC-MS/MS analysis
Chain of Cytochrome P450 2C9 (P11712 whole entry): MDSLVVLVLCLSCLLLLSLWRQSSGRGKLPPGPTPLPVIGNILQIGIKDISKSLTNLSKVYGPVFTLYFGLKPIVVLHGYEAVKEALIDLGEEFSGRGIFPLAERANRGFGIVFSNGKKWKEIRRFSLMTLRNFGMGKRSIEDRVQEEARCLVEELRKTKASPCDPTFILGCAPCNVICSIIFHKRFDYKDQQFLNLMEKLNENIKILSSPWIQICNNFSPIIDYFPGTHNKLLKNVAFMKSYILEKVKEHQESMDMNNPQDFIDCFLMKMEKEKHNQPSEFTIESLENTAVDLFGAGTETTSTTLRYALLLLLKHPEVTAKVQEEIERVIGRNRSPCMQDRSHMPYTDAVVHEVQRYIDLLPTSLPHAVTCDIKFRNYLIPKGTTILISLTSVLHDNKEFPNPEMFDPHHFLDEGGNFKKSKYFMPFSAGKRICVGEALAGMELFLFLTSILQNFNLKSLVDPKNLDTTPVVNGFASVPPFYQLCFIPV

[11] = biological target: Cytochrome P450 3A4 (Homo sapiens, UniProt P08684); test: Inhibition of human liver microsome CYP3A4 using midazolam as substrate preincubated for 10 mins followed by substrate and NADPH addition and measured after 10 mins by LC-MS/MS analysis
Chain of Cytochrome P450 3A4 (P08684 whole entry): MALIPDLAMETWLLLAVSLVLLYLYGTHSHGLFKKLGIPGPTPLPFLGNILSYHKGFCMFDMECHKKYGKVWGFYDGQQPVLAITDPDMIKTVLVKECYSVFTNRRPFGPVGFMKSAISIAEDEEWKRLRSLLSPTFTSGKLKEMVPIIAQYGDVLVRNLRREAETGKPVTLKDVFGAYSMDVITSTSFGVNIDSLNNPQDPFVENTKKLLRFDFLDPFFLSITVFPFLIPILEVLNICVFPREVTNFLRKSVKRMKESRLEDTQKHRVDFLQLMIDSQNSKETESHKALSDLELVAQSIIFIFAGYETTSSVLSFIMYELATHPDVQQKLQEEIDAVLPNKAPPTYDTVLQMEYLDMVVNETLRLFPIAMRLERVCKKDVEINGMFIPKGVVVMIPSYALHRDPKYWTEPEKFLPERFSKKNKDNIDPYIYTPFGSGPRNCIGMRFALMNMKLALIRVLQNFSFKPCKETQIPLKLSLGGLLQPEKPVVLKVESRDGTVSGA

[12] = Half life in Sprague-Dawley rat at 2 mg/kg, iv measured upto 24 hrs by LC-MS/MS analysis; type: ADME, organism-based; conditions: Sprague-Dawley, in vivo
[13] = Clearance in Sprague-Dawley rat at 2 mg/kg, iv measured upto 24 hrs by LC-MS/MS analysis; conditions: in vivo
[14] = Volume of distribution at steady state in Sprague-Dawley rat at 2 mg/kg, iv measured upto 24 hrs by LC-MS/MS analysis; type: ADME, organism-based; conditions: in vivo, read-out: Vdss
[15] = Cmax in Sprague-Dawley rat at 2 mg/kg, iv measured upto 24 hrs by LC-MS/MS analysis; type: ADME, organism-based; set-up: route intravenous, time <=24; conditions: Sprague-Dawley, in vivo, read-out: Cmax
[16] = AUC (0 to last) in Sprague-Dawley rat at 2 mg/kg, iv measured upto 24 hrs by LC-MS/MS analysis; type: ADME, organism-based; set-up: route intravenous, dose 2 mg/kg, time <=24; conditions: Sprague-Dawley, in vivo
[17] = AUC (0 to last) in Sprague-Dawley rat at 10 mg/kg, po measured upto 24 hrs by LC-MS/MS analysis; type: ADME, organism-based; set-up: route oral, dose 10 mg/kg, time <=24; conditions: in vivo
[18] = Oral bioavailability in Sprague-Dawley rat at 10 mg/kg measured upto 24 hrs by LC-MS/MS analysis; type: ADME, organism-based; conditions: in vivo
[19] = Half life in BALB/c mouse at 1 mg/kg, iv measured upto 24 hrs by LC-MS/MS analysis; type: ADME, organism-based; conditions: in vivo
[20] = Clearance in BALB/c mouse at 1 mg/kg, iv measured upto 24 hrs by LC-MS/MS analysis; conditions: in vivo
[21] = Volume of distribution at steady state in BALB/c mouse at 1 mg/kg, iv measured upto 24 hrs by LC-MS/MS analysis; type: ADME, organism-based; conditions: in vivo, read-out: Vdss
[22] = AUC (0 to last) in BALB/c mouse at 1 mg/kg, iv measured upto 24 hrs by LC-MS/MS analysis; type: ADME, organism-based; set-up: route intravenous, dose 1 mg/kg, time <=24; conditions: in vivo
[23] = Oral bioavailability in BALB/c mouse at 2 mg/kg measured upto 24 hrs by LC-MS/MS analysis; type: ADME, organism-based; conditions: in vivo
[24] = tested on: Mus musculus; test: Antiarthritic activity in po dosed collagen-induced arthritis mouse model assessed as clinical score administered for 14 days and measured for 21 days after dosing; type: functional, organism-based; conditions: dose mg/kg 3-10, time 14.0 day
[25] = Toxicity in mouse assessed as drug tolerance at 3 and 10 mg/kg, po administered for 14 days and observed for 21 days; type: organism-based; conditions: in vivo, 336 h, dose 3-10 mg/kg, time 14 day
[26] = Toxicity in mouse assessed as body weight loss at 3 and 10 mg/kg, po administered for 14 days and observed for 21 days; type: organism-based; conditions: in vivo, 336 h, dose 3-10 mg/kg, time 14 day

Chain of Tyrosine-protein kinase BTK (Q06187 whole entry): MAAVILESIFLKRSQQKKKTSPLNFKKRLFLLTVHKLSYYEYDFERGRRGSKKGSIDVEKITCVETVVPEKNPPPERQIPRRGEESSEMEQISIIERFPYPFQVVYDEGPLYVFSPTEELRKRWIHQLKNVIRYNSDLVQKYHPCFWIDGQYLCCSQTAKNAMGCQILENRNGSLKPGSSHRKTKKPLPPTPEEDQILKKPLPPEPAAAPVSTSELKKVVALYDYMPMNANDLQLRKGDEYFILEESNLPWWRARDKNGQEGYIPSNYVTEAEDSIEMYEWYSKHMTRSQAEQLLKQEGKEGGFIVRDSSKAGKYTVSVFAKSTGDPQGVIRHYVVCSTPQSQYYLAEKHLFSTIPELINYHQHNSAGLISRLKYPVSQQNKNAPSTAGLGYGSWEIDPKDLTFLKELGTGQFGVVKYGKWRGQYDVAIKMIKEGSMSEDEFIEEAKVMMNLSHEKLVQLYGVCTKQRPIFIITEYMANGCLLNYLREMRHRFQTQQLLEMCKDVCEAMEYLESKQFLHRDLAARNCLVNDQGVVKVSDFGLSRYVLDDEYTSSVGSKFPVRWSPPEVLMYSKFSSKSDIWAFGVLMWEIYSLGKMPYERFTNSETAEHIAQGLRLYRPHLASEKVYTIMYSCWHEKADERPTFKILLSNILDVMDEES

C=CC(=O)N1CC[C@@H](n2nc(-c3ccc(Oc4ccccc4)cc3)c3c(N)n[nH]c(=O)c32)C1 showed an IC50 [1] of 1.4 nM, a Cmax [2] of 137 nM and an AUC at 24 h [3] of 68 ng·h/mL.
C=CC(=O)N1CCCC(n2nc(-c3ccc(Oc4ccccc4)cc3)c3cc4c(N)noc4cc32)C1 (configuration not stated) gave an IC50 [1] of 4660 nM.
C=CC(=O)N1CCC[C@@H](Nc2ncnc3[nH]c4ccc(Oc5ccccc5)cc4c(=O)c23)C1 showed an IC50 [1] of over 10000 nM.
Compound C=CC(=O)N[C@H]1CC[C@@H](n2nc(-c3ccc(Oc4ccccc4)cc3)c3c(N)n[nH]c(=O)c32)CC1 has an IC50 [1] of 1.6 nM, a Cmax [2] of 290 nM and an AUC at 24 h [3] of 161 ng·h/mL.
For C=CC(=O)N1CCC[C@@H](n2nc(-c3ccc(Oc4ccccc4)cc3)c3c(N)nn(C)c(=O)c32)C1, the IC50 [1] was 160 nM.
For C=CC(=O)N1CC(n2nc(-c3ccc(Oc4ccccc4)cc3)c3c(N)n[nH]c(=O)c32)C1, the IC50 [1] was 9.8 nM.
C=CS(=O)(=O)N1CCC[C@@H](n2nc(-c3ccc(Oc4ccccc4)cc3)c3c(N)n[nH]c(=O)c32)C1 showed an IC50 [1] of 4.2 nM.
Work on C=CC(=O)N1CCC[C@@H](n2nc(-c3ccc(Oc4ccccc4)cc3)c3c(N)nn(CC(F)(F)F)c(=O)c32)C1 yielded an IC50 [1] of over 1000 nM.
Work on Nc1n[nH]c(=O)c2c1c(-c1ccc(Oc3ccccc3)cc1)nn2[C@@H]1CCCN(C(=O)/C=C/CN2CCOCC2)C1 yielded an IC50 [1] of 13 nM.
Work on C=CC(=O)N1CCC[C@@H](Nc2ncnc(N)c2-n2ncc3cc(Oc4ccccc4)ccc32)C1 yielded an IC50 [1] of 1670 nM.
Compound CN(C)C/C=C/C(=O)N(C)CCn1nc(-c2ccc(Oc3ccccc3)cc2)c2c(N)n[nH]c(=O)c21 has an IC50 [1] of 35 nM.
In the case of C=CC(=O)N1CCCCC(n2nc(-c3ccc(Oc4ccccc4)cc3)c3c(N)n[nH]c(=O)c32)C1 (configuration not stated), the IC50 [1] is reported as 6.7 nM.
Compound C=CC(=O)N1CCC[C@@H](n2nc(-c3ccc(Oc4ccccc4)cc3)c3c(N)n[nH]c(=O)c32)C1 has an IC50 [1] of 2.1 nM, a Cmax [2] of 252 nM and an AUC at 24 h [3] of 128 ng·h/mL. For the same compound, the fraction unbound at 4 h, 2 µM [4] was 0.025, the fraction unbound at 4 h, 2 µM [5] was 0.003 and the fraction unbound at 4 h, 2 µM [6] was 0.047. The IC50 [7] was over 100000 nM, the IC50 [8] was 43900 nM and the IC50 [9] was over 100000 nM. It also gave an IC50 [10] of 39600 nM, an IC50 [11] of 37300 nM and a half-life [12] of 19.2 min. The clearance [13] was 54.6 mL/min/kg, the Vd [14] was 1.55 L/kg and the Cmax [15] was 466 ng/mL. The AUC(0-t) at 24 h [16] was 604 ng·h/mL, the AUC(0-t) at 24 h [17] was 642 ng·h/mL and the bioavailability [18] was 23.7%. It also gave a half-life [19] of 25.2 min, a clearance [20] of 31.3 mL/min/kg and a Vd [21] of 0.82 L/kg. The AUC(0-t) at 24 h [22] was 576 ng·h/mL, the bioavailability [23] was 11.2% and the Activity [24] was “Dose-dependent effect”. For the same compound, the Activity [25] was “Non-Toxic” and the Activity [26] was “Non-Toxic”.

Source: ChEMBL document CHEMBL4725429, “Discovery and Evaluation of Pyrazolo[3,4-d]pyridazinone as a Potent and Orally Active Irreversible BTK Inhibitor” (ACS Med Chem Lett, 2020)
